Where “and” joins values, the source holds several entries; their conditions need not be identical. Identical values can stand only once. Where no end group is shown, it is not given here.
B1: S100A7: "defensin-like" innate peptide constitutively secreted by cervical/vaginal mucosa (Abnova) (protein, UniProt P31151 2-101, looked up)
Protein S100-A7: SNTQAERSIIGMIDMFHKYTRRDDKIEKPSLLTMMKENFPNFLSACDKKGTNYLADVFEKKDKNEDKKIDFSEFLSLLGDIATDYHKQSHGAAPCSGGSQ

Legend:
[1] = tested on: Lactobacillus crispatus DSM 20356; test: Antimicrobial assay (surviving colonies, CFU count); type: cell-based; details: for Bacterial survival (surviving colonies): Fig 5E, L. crispatus, individual replicates; for Bacterial survival (surviving colonies) / positive effect on survival in acidic conditions: pH 5.8; for positive effect on survival in potassium phosphate buffer: KPB pH 7.4, 10 mM; for positive effect on survival in potassium phosphate buffer / positive effect on survival in acidic conditions / effect on bacterial growth/survival (percentage of surviving colonies): 6 h; for positive effect on survival in potassium phosphate buffer / positive effect on survival in acidic conditions: n = 4; for effect on bacterial growth/survival (percentage of surviving colonies): peptide 1–10 µg/ml, 5 × 10^4 CFU/ml, 10 mM sodium phosphate buffer, 37 °C, plated on Columbia Blood agar, n = 3; for antimicrobial/protective activity in reducing environment: peptides pre-incubated with 2 mM DTT 30 min 37 °C, 6 h with bacteria, n = 6; for incubation time at which a significant increased percentage of surviving colonies was detected: starvation assay (no nutrients), 45 min to 9 h, n = 8
Experimental: (§1) Bacterial strains Lactobacillus crispatus DSM 20356, Lactobacillus iners CIP 105923 and Garnerella vaginalis CCUG 43336 were kindly provided by the Department of Clinical Microbiology at University Hospital Center of Liege. Lactobacillus jensenii LMG 6414 was obtained from BCCM/LMG Bacteria Collection (University of Gent, Belgium). Log-phase bacteria were grown on Columbia agar with 5% sheep blood (Becton Dickinson, Franklin Lakes, NJ, USA) at 37 °C in a humidified CO2 atmosphere (Lactobacilli) or in anaerobic jars (G. vaginalis). To analyze the antimicrobial effect of innate peptides expressed by vaginal/cervical mucosa, 5 × 10^4 colony-forming unit (CFU)/ml were mixed with different peptides (concentration range: 1–10 µg/ml) in 10 mM sodium phosphate buffer (SPB) (final volume 100 µl) and incubated for 45 min to 9 h at 37 °C. Where indicated, the peptides were incubated with 2 mM dithiothreitol (DTT) (Invitrogen, Carlsbad, CA, USA) for 30 min at 37 °C before adding the bacteria. In indicated experiments, incubation was carried out in potassium phosphate buffer (KPB) (pH: 7.4, 10 mM). The following peptides were tested: HβD1 (PeptaNova, Sandhausen, Germany), HβD2 (PeptaNova), HβD3 (PeptaNova), HβD4 (PeptaNova), HD-5 (PeptaNova), HD-6 (PeptaNova), elafin (PeptaNova), S100A7 (Abnova, Taipei City, Taiwan) and SLPI (R&D Systems, Minneapolis, MI, USA). Bacterial suspensions were then plated on Columbia Blood agar plates for 24–48 h to determine CFU. High-resolution images for each condition were taken. Colony detection and counts were finally performed using ImageJ software (NIH, Bethesda, MD, USA) and verified by manual counting.

[2] = tested on: Lactobacillus iners CIP 105923; test: as above; type: cell-based; details: for Bacterial survival (surviving colonies): Fig 5E, L. iners, individual replicates; for Bacterial survival (surviving colonies) / positive effect on survival in acidic conditions: pH 5.8; for positive effect on survival in potassium phosphate buffer: KPB pH 7.4, 10 mM; for positive effect on survival in potassium phosphate buffer / positive effect on survival in acidic conditions / effect on bacterial growth/survival (percentage of surviving colonies): 6 h; for positive effect on survival in potassium phosphate buffer / positive effect on survival in acidic conditions: n = 4; for effect on bacterial growth/survival (percentage of surviving colonies): peptide 1–10 µg/ml, 5 × 10^4 CFU/ml, 10 mM sodium phosphate buffer, 37 °C, plated on Columbia Blood agar, n = 3; for antimicrobial/protective activity in reducing environment: peptides pre-incubated with 2 mM DTT 30 min 37 °C, 6 h with bacteria, n = 5; for incubation time at which a significant increased percentage of surviving colonies was detected: starvation assay (no nutrients), n = 6
Experimental: as §1

[3] = tested on: Lactobacillus jensenii LMG 6414; test: as above; type: cell-based; details: for Bacterial survival (surviving colonies): Fig 5E, L. jensenii, individual replicates; for Bacterial survival (surviving colonies) / positive effect on survival in acidic conditions: pH 5.8; for positive effect on survival in potassium phosphate buffer: KPB pH 7.4, 10 mM; for positive effect on survival in potassium phosphate buffer / positive effect on survival in acidic conditions / effect on bacterial growth/survival (percentage of surviving colonies): 6 h; for positive effect on survival in potassium phosphate buffer / positive effect on survival in acidic conditions / antimicrobial/protective activity in reducing environment: n = 4; for effect on bacterial growth/survival (percentage of surviving colonies): peptide 1–10 µg/ml, 5 × 10^4 CFU/ml, 10 mM sodium phosphate buffer, 37 °C, plated on Columbia Blood agar, n = 3; for antimicrobial/protective activity in reducing environment: peptides pre-incubated with 2 mM DTT 30 min 37 °C, 6 h with bacteria; for incubation time at which a significant increased percentage of surviving colonies was detected: starvation assay (no nutrients), 45 min to 9 h, n = 8
Experimental: as §1

L. crispatus [4] = test: Internalization of fluorescent-labeled peptides in bacteria (flow cytometry); type: cell-based, Lactobacillus crispatus; details: Atto 488-labeled peptide 5 µg/ml, 5 × 10^4 CFU/ml, 10 mM SPB, 1 h30, 37 °C, trypan blue, n = 3
Experimental: (§2) To determine the incorporation of selected peptides (or their hydrolyzed products) within the cytoplasm of several bacterial species, free amine groups (lysine residues and N-terminus) were first conjugated with Atto 488 dye according to manufacturer’s recommendations (Atto 488 protein labeling kit, Sigma Aldrich). A total 5 × 10^4 colony-forming unit (CFU)/ml were then mixed with fluorescent labeled peptides (5 µg/ml) in 10 mM sodium phosphate buffer (final volume 100 µl) and incubated for 1 h30 at 37 °C before being analyzed by flow cytometry. Where indicated, trypan blue was added before the analysis in order to exclusively consider cytoplasmic fluorescence.

L. jensenii [5] = test: as above; type: cell-based, Lactobacillus jensenii; details: Atto 488-labeled peptide 5 µg/ml, 5 × 10^4 CFU/ml, 10 mM SPB, 1 h30, 37 °C, trypan blue, n = 3
Experimental: as §2

L. iners [6] = test: as above; type: cell-based, Lactobacillus iners; details: Atto 488-labeled peptide 5 µg/ml, 5 × 10^4 CFU/ml, 10 mM SPB, 1 h30, 37 °C, trypan blue, n = 3
Experimental: as §2

L. crispatus [7] = test: ATP measurement in bacteria (BacTiter-Glo); type: cell-based, Lactobacillus crispatus; details: 6 × 10^7 CFU/ml, peptide 5 µg, 10 mM SPB, 6 h, 37 °C; luminescence; n = 5; statistical significance not reached in all conditions
Experimental: (§3) ATP level in bacteria was determined using the BacTiter-Glo Microbial Cell Viability Assay (Promega) according to manufacturer’s recommendations. For each bacterial species, 6 ×10^7 CFU/ml were mixed with elafin or S100A7 (5 µg) in 10 mM SPB and incubated 6 h at 37 °C. One hundred µl of bacterial-peptide solution were then mixed with an equal volume of BacTiter-Glo reagent and incubated for 5 min at room temperature. Luminescence was measured using a Centro LB960 microplate luminometer (Berthold Technologies, Bad Wildbad, Germany).

L. jensenii [8] = test: ATP measurement in bacteria (BacTiter-Glo); type: cell-based, Lactobacillus jensenii; details: 6 × 10^7 CFU/ml, peptide 5 µg, 10 mM SPB, 6 h, 37 °C; luminescence; n = 5; statistical significance not reached in all conditions
Experimental: as §3

L. iners [9] = test: ATP measurement in bacteria (BacTiter-Glo); type: cell-based, Lactobacillus iners; details: 6 × 10^7 CFU/ml, peptide 5 µg, 10 mM SPB, 6 h, 37 °C; luminescence; n = 5; statistical significance not reached in all conditions
Experimental: as §3

E-cadherin (CDH1) = test: Reactivation of hypermethylated CDH1 gene (Western blot); type: cell-based, human; details: 5 µM
Experimental: Immortalized keratinocytes (1.5 × 10^5 cells per well of a six-well plate) were transfected with ON-TARGETplus SMARTpool siRNAs targeting p65, β-catenin or c-Myc (Dharmacon, Lafayette, CO, USA) using Oligofectamine Transfection Reagent (Invitrogen). Oligos targeting the firefly luciferase gene (siGL2) were used as control. For each experiment, siRNA (40 nM) and 6 µl of Oligofectamine were diluted in 1 ml of Optimem (Invitrogen). The cells were incubated with the mixture for 4 h at 37 °C. Twenty-four hours after transfection, cells were either harvested or stimulated with LPS (2 µg/ml) or TNFα (20 ng/ml) and experiments were performed. For the chemical inhibition of NF-kB or c-Myc, BAY 11-7082 (5 µM, Sigma Aldrich) or 10058-F4 (40 µM, Selleckchem, Houston, TX, USA) was added to cell cultures before RNA expression analyses. […]
After extraction in 1% SDS buffer (total extraction) containing protease and phosphatase inhibitors (Roche) and quantification (BCA protein assay kit; Pierce, Rockford, IL, USA), twenty micrograms of proteins were separated on 10% SDS-PAGE and transferred to PVDF membranes (Roche). […] The protein bands were detected using an enhanced chemiluminescence system (Westar ECL-Sun, Cyanagen, Bologna, Italy) and finally quantified by densitometry using ImageJ software. […]

Molecule | Bacterial survival (surviving colonies) [1] | positive effect on survival in potassium phosphate buffer [1] | positive effect on survival in acidic conditions [1] | effect on bacterial growth/survival (percentage of surviving colonies) [1] | antimicrobial/protective activity in reducing environment [1] | incubation time at which a significant increased percentage of surviving colonies was detected [1] | Bacterial survival (surviving colonies) [2] | positive effect on survival in potassium phosphate buffer [2] | positive effect on survival in acidic conditions [2] | effect on bacterial growth/survival (percentage of surviving colonies) [2] | antimicrobial/protective activity in reducing environment [2] | incubation time at which a significant increased percentage of surviving colonies was detected [2] | Bacterial survival (surviving colonies) [3] | positive effect on survival in potassium phosphate buffer [3] | positive effect on survival in acidic conditions [3] | effect on bacterial growth/survival (percentage of surviving colonies) [3] | antimicrobial/protective activity in reducing environment [3] | incubation time at which a significant increased percentage of surviving colonies was detected [3] | internalization of fluorescent-labeled peptide (or hydrolyzed products) within the cytoplasm of bacteria (L. crispatus [4]) | internalization of fluorescent-labeled peptide (or hydrolyzed products) within the cytoplasm of bacteria (L. jensenii [5]) | further results
elafin: "defensin-like" innate peptide constitutively secreted by cervical/vaginal mucosa (PeptaNova) (AQEPVKGPVSTKPGSCPIILIRCAMLNPPNRCLKDTDCPGIKKCCEGSCGMACFVPQ; not fully specified; ends and bridges not checked; UniProt P19957 61-117, looked up) | 124.66 and 146.1 and 157.25 and 154.15 | did not modify the positive effect | did not modify the positive effect | do not display any antimicrobial activities | significant protective effect | only detected after 3 or 6 h | 148.35 and 185.56 and 157.03 and 142.84 | did not modify the positive effect | did not modify the positive effect | do not display any antimicrobial activities | significant protective effect | only detected after 3 or 6 h | 223.81 and 226.19 and 261.90 and 150.02 | did not modify the positive effect | did not modify the positive effect | do not display any antimicrobial activities | significant protective effect | only detected after 3 or 6 h | internalization | internalization | internalization of fluorescent-labeled peptide (or hydrolyzed products) within the cytoplasm of bacteria (L. iners [6]): internalization; ATP production (L. crispatus [7]): increase of ATP production; ATP production (L. jensenii [8]): increase of ATP production; ATP production (L. iners [9]): increase of ATP production
Nc1ncn([C@H]2C[C@H](O)[C@@H](CO)O2)c(=O)n1 [5-aza-deoxycytidine] | – | – | – | – | – | – | – | – | – | – | – | – | – | – | – | – | – | – | – | – | CDH1 (E-cadherin) expression, Western blot (E-cadherin (CDH1)): reactivation of silenced CDH1 gene
B1 | 127.74 and 112.92 and 139.54 and 168.69 | did not modify the positive effect | did not modify the positive effect | do not display any antimicrobial activities | significant protective effect | only detected after 3 or 6 h | 138.53 and 246.67 and 123.50 and 159.47 | did not modify the positive effect | did not modify the positive effect | do not display any antimicrobial activities | significant protective effect | only detected after 3 or 6 h | 419.05 and 164.29 and 304.76 and 269.05 | did not modify the positive effect | did not modify the positive effect | do not display any antimicrobial activities | significant protective effect | only detected after 3 or 6 h | internalization | internalization | internalization of fluorescent-labeled peptide (or hydrolyzed products) within the cytoplasm of bacteria (L. iners [6]): internalization; ATP production (L. crispatus [7]): increase of ATP production; ATP production (L. jensenii [8]): increase of ATP production; ATP production (L. iners [9]): increase of ATP production

— article PMC8885657, “HPV infection alters vaginal microbiome through down-regulating host mucosal innate peptides used by Lactobacilli as amino acid sources” (Nature Communications, 2022)
